Laboratory results taken from patent publication US20210207064A1, “COMPOUND FOR RESTORING CONTAMINATED SOIL OR CONTAMINATED WATER” (FNG RESEARCH CO., LTD., priority 2018, published 2021).

How the values were obtained:
[1] = Heavy metal removal ability test in contaminated soil around a factory (WAK-Me test kit); conditions: 1.0 wt % aqueous solution, colour comparison test kit
Protocol: The contaminated soil around the factory in the industrial complex was collected, pulverized, and meshed to prepare fine particles of soil samples.
Each 3 ml of aqueous solutions for restoring soil was added to soil samples and mixed for 5 minutes.

[2] = test system: human skin; test: Skin irritation test of active ingredient (patch method, CTFA guidelines); type: in vivo; conditions: 24 h patch; for Test result (number of subject) (+) / Test result (number of subject) (++) / Test result (number of subject) (±) / Test result (number of subject) (−): 20 people; for Test result (number of subject) (+): (+) apparent reddening; for Test result (number of subject) (++): (++) more reddened and swollen; for Test result (number of subject) (±): (±) slightly reddish; for Test result (number of subject) (−): (−) no erythema
Protocol: A filter paper disk was placed in an 8 mm diameter, 10 panels of pin chamber.
After 24 hours, the pin chamber was removed, and skin conditions were visually observed. The degree and grade for skin irritation were calculated according to the following Equation 2, and the results are shown in Table 4 below.
[Criteria for Skin Irritation]
(−): No erythema or particularly no symptoms; (±): slightly reddish than the periphery; (+): Apparent reddening than periphery; (++): More reddened and swollen than periphery.
[Grade for Skin Irritation]
Degree of irritation 0-0.1: Grade I (unstimulated);
Degree of irritation 0.11-0.3: Grade II (weakly stimulated);
Degree of irritation 0.31-0.5: Grade III (moderately stimulated);
Degree of irritation 0.51 or more: Grade IV (strongly stimulated)

[3] = Heavy metal removal ability test in contaminated soil (ICP-MS), nickel; conditions: for Nickel (Ni) Adsorption amount: contaminated soil; for Nickel (Ni) Adsorption rate: relative to EDTA control
Protocol: (§1) (1) Preparation of Soil Contaminated with Heavy Metal
(§2) After collecting and pulverizing uncontaminated soil, fine particles obtained by using a mesh were mixed with the aqueous heavy metal solution to prepare soil samples contaminated with heavy metals.
(§3) Each 3 ml of the prepared aqueous solution was added to a soil sample contaminated with heavy metals and mixed for 5 minutes.
(§4) 50 ml of distilled water was added to the contaminated soil mixed with the aqueous solution for restoring soil, stirred for 20 minutes, and settled for 1 hour, and a supernatant was prepared as a sample solution.
(§5) The prepared sample solution was analyzed for the heavy metal component using an Inductively Coupled Plasma Mass Spectrometer (ICP-MS) (Xseries™ 2, Thermo Fisher Scientific, UK).
(§6) Adsorption rate of heavy metals (%)=(Adsorption amount of Embodiment/Adsorption amount of Control)×100 Equation 1

[4] = Heavy metal removal ability test in contaminated soil (ICP-MS), arsenic; conditions: for Arsenic (As) Adsorption amount: contaminated soil; for Arsenic (As) Adsorption rate: relative to EDTA control
Protocol: as §1, §2, §3, §4, §5, §6

[5] = Heavy metal removal ability test in contaminated soil (ICP-MS), cadmium; conditions: for Cadmium (Cd) Adsorption amount: contaminated soil; for Cadmium (Cd) Adsorption rate: relative to EDTA control
Protocol: as §1, §2, §3, §4, §5, §6

[6] = Formaldehyde (formalin) removing ability test (GC); conditions: 2.0% formaldehyde solution, 3 molar equivalents of compound, room temperature; for Formaldehyde GC Area, 30 min: after 30 min; for Formaldehyde GC Area, 180 min: after 180 min; for Formaldehyde GC Area, Initial: initial state

Row | SMILES | Total amount (Cu, Zn, Mn, Ni, Cd) [1] [ppm] | Test result (number of subject) (+) ([2]; content 0.1 wt %) | Test result (number of subject) (++) ([2]; content 0.1 wt %) | Test result (number of subject) (±) ([2]; content 0.1 wt %) | Test result (number of subject) (−) ([2]; content 0.1 wt %) | Degree of irritation ([2]; content 0.1 wt %) | Grade for skin irritation ([2]; content 0.1 wt %) | Test result (number of subject) (+) ([2]; content 0.5 wt %) | Test result (number of subject) (++) ([2]; content 0.5 wt %) | Test result (number of subject) (±) ([2]; content 0.5 wt %) | Test result (number of subject) (−) ([2]; content 0.5 wt %) | Degree of irritation ([2]; content 0.5 wt %) | Grade for skin irritation ([2]; content 0.5 wt %) | Test result (number of subject) (+) ([2]; content 1.0 wt %) | Test result (number of subject) (++) ([2]; content 1.0 wt %) | Test result (number of subject) (±) ([2]; content 1.0 wt %) | Test result (number of subject) (−) ([2]; content 1.0 wt %) | Degree of irritation ([2]; content 1.0 wt %) | Grade for skin irritation ([2]; content 1.0 wt %) | Nickel (Ni) Adsorption amount ([3]; content 0.5% aqueous solution) [ppm] | further results
1 | O=C(O)c1ccc(N(CCN(CCN(c2ccc(C(=O)O)o2)c2ccc(C(=O)O)o2)c2ccc(C(=O)O)o2)CCN(c2ccc(C(=O)O)o2)c2ccc(C(=O)O)o2)o1 [Embodiment 4, 5,5′,5″,5′″-(((ethane-1,2-diylbis((5-carboxyfuran-2-yl)azanediyl))bis(ethane-2,1-diyl))bis(azanetriyl))tetrakis(furan-2-carboxylic Acid)] | ≤5 | 0 | 0 | 0 | 20 | 0 | I (Degree of irritation 0-0.1: Grade I (unstimulated)) | 0 | 0 | 0 | 20 | 0 | I (Degree of irritation 0-0.1: Grade I (unstimulated)) | 0 | 0 | 1 | 19 | 0.05 | I (Degree of irritation 0-0.1: Grade I (unstimulated)) | 91 | Nickel (Ni) Adsorption rate ([3]; content 0.5%): 186%; Nickel (Ni) Adsorption amount ([3]; content 1.0% aqueous solution): 94 ppm; Nickel (Ni) Adsorption rate ([3]; content 1.0%): 192%; Nickel (Ni) Adsorption amount ([3]; content 2.0% aqueous solution): 104 ppm; Nickel (Ni) Adsorption rate ([3]; content 2.0%): 212%; Arsenic (As) Adsorption amount ([4]; content 0.5% aqueous solution): 53 ppm; Arsenic (As) Adsorption rate ([4]; content 0.5%): 212%; Arsenic (As) Adsorption amount ([4]; content 1.0% aqueous solution): 56 ppm; Arsenic (As) Adsorption rate ([4]; content 1.0%): 224%; Arsenic (As) Adsorption amount ([4]; content 2.0% aqueous solution): 56 ppm; Arsenic (As) Adsorption rate ([4]; content 2.0%): 224%; Cadmium (Cd) Adsorption amount ([5]; content 0.5% aqueous solution): 67 ppm; Cadmium (Cd) Adsorption rate ([5]; content 0.5%): 163%; Cadmium (Cd) Adsorption amount ([5]; content 1.0% aqueous solution): 74 ppm; Cadmium (Cd) Adsorption rate ([5]; content 1.0%): 180%; Cadmium (Cd) Adsorption amount ([5]; content 2.0% aqueous solution): 80 ppm; Cadmium (Cd) Adsorption rate ([5]; content 2.0%): 195%; Formaldehyde GC Area, 30 min [6]: 0.173 mAU*min; Formaldehyde GC Area, 180 min [6]: 0 mAU*min; Formaldehyde GC Area, Initial [6]: 0.305 mAU*min
2 | O=C(O)CN1CCN(CC(=O)O)CCN(CC(=O)O)CCN(CC(=O)O)CC1 [Embodiment 5, 2,2′,2″,2′″-(1,4,7,10-tetraazacyclododecane-1,4,7,10-tetrayl)tetraacetic Acid] | ≤5 | 0 | 0 | 0 | 20 | 0 | I (Degree of irritation 0-0.1: Grade I (unstimulated)) | 0 | 0 | 0 | 20 | 0 | I (Degree of irritation 0-0.1: Grade I (unstimulated)) | 0 | 0 | 1 | 19 | 0.05 | I (Degree of irritation 0-0.1: Grade I (unstimulated)) | 83 | Nickel (Ni) Adsorption rate ([3]; content 0.5%): 169%; Nickel (Ni) Adsorption amount ([3]; content 1.0% aqueous solution): 85 ppm; Nickel (Ni) Adsorption rate ([3]; content 1.0%): 173%; Nickel (Ni) Adsorption amount ([3]; content 2.0% aqueous solution): 89 ppm; Nickel (Ni) Adsorption rate ([3]; content 2.0%): 182%; Arsenic (As) Adsorption amount ([4]; content 0.5% aqueous solution): 41 ppm; Arsenic (As) Adsorption rate ([4]; content 0.5%): 164%; Arsenic (As) Adsorption amount ([4]; content 1.0% aqueous solution): 46 ppm; Arsenic (As) Adsorption rate ([4]; content 1.0%): 184%; Arsenic (As) Adsorption amount ([4]; content 2.0% aqueous solution): 53 ppm; Arsenic (As) Adsorption rate ([4]; content 2.0%): 212%; Cadmium (Cd) Adsorption amount ([5]; content 0.5% aqueous solution): 60 ppm; Cadmium (Cd) Adsorption rate ([5]; content 0.5%): 146%; Cadmium (Cd) Adsorption amount ([5]; content 1.0% aqueous solution): 66 ppm; Cadmium (Cd) Adsorption rate ([5]; content 1.0%): 161%; Cadmium (Cd) Adsorption amount ([5]; content 2.0% aqueous solution): 74 ppm; Cadmium (Cd) Adsorption rate ([5]; content 2.0%): 180%; Formaldehyde GC Area, 30 min [6]: 0.179 mAU*min; Formaldehyde GC Area, 180 min [6]: 0 mAU*min; Formaldehyde GC Area, Initial [6]: 0.305 mAU*min
